Measurements from PubChem BioAssay AID2060490 (Molecular Pharmacology Branch, DTP, NCI, 2025).

Tested on: 885512-296-R-J2-PDC complex spheroid viability
Assay: Anticancer human tumor 885512-296-R-J2-PDC patient-derived breast carcinoma cell line growth inhibition [GQUAD]
Settings: for IC50: curve of first compound; for viability, T/C: stronger effect = lower value; active = viability on the fitted dose curve at most 10% of control; inactive = the rest
Method in brief: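 Multi-cell-type spheroids of tumor cells with HUVEC and mesenchymal stem cells, treated with drug combinations. Concentrations descend in half-log steps from near clinical Cmax, or from 10 microM where Cmax is unknown; viability read-out.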
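Also: spheroids exposed to the compounds for one week.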
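For viability, T/C in this document: percent of tumor spheroid viability relative to DMSO vehicle control wells.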

CC(=O)O[C@H]1C(=O)[C@@]2(C)[C@H]([C@H](OC(=O)c3ccccc3)[C@]3(O)C[C@H](OC(=O)[C@H](O)[C@@H](NC(=O)c4ccccc4)c4ccccc4)C(C)=C1C3(C)C)[C@]1(OC(C)=O)CO[C@@H]1C[C@@H]2O + Cc1[nH]c2ccc(F)cc2c1-c1nc2c3cccnc3c3ncccc3c2[nH]1
176 nM: IC50 (second compound 0.1 µM)
< 31.6 nM: IC50 (second compound 3.16 µM) | IC50 (second compound 10 µM)
148 nM: IC50 (second compound 0.0316 µM)
inactive: viability, T/C (second compound 0.0316 µM, first compound 0.0316 µM) 100% | viability, T/C (second compound 0.0316 µM, first compound 0.1 µM) 67.2% | viability, T/C (second compound 0.0316 µM, first compound 0.316 µM) 16.9% | viability, T/C (second compound 0.1 µM, first compound 0.0316 µM) 90.5% | viability, T/C (second compound 0.1 µM, first compound 0.1 µM) 77.2% | viability, T/C (second compound 0.1 µM, first compound 0.316 µM) 21.5% | viability, T/C (second compound 0.316 µM, first compound 0.0316 µM) 78.4% | viability, T/C (second compound 0.316 µM, first compound 0.1 µM) 70.6% | viability, T/C (second compound 0.316 µM, first compound 0.316 µM) 43.7% | viability, T/C (second compound 1 µM, first compound 0.0316 µM) 52.8% | viability, T/C (second compound 1 µM, first compound 0.1 µM) 58.1% | viability, T/C (second compound 1 µM, first compound 0.316 µM) 16.4%
117 nM: IC50 (second compound 1 µM)
240 nM: IC50 (second compound 0.316 µM)
active: viability, T/C (second compound 0.0316 µM, first compound 1 µM) 3.76% | viability, T/C (second compound 0.0316 µM, first compound 3.16 µM) 1% | viability, T/C (second compound 0.0316 µM, first compound 10 µM) 0.76% | viability, T/C (second compound 0.1 µM, first compound 1 µM) 5.55% | viability, T/C (second compound 0.1 µM, first compound 3.16 µM) 0.13% | viability, T/C (second compound 0.1 µM, first compound 10 µM) 0.12% | viability, T/C (second compound 0.316 µM, first compound 1 µM) 5.11% | viability, T/C (second compound 0.316 µM, first compound 3.16 µM) 0.81% | viability, T/C (second compound 0.316 µM, first compound 10 µM) 0.08% | viability, T/C (second compound 1 µM, first compound 1 µM) 1.87% | viability, T/C (second compound 1 µM, first compound 3.16 µM) 0.21% | viability, T/C (second compound 1 µM, first compound 10 µM) 0.41% | viability, T/C (second compound 3.16 µM, first compound 0.0316 µM) 3.83% | viability, T/C (second compound 3.16 µM, first compound 0.1 µM) 6.17% | viability, T/C (second compound 3.16 µM, first compound 0.316 µM) 8.48% | viability, T/C (second compound 3.16 µM, first compound 1 µM) 0.24% | viability, T/C (second compound 3.16 µM, first compound 3.16 µM) 0.53% | viability, T/C (second compound 3.16 µM, first compound 10 µM) 0.46% | viability, T/C (second compound 10 µM, first compound 0.0316 µM) 1.53% | viability, T/C (second compound 10 µM, first compound 0.1 µM) 1.57% | viability, T/C (second compound 10 µM, first compound 0.316 µM) 4.36% | viability, T/C (second compound 10 µM, first compound 1 µM) 0.21% | viability, T/C (second compound 10 µM, first compound 3.16 µM) 0.84% | viability, T/C (second compound 10 µM, first compound 10 µM) 1.07%
